The supplement of paper PMC10627819

Key:
B. subtilis 168 [1] = experiment: fitness (endpoint OD595 vs no drug) (fraction); higher = more growth
Method in brief: (§1)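 Fitness compares growth at the stationary-phase transition with the robust mean of no-drug control wells, as a ratio of optical densities. The ratio is capped at 1. Wells of 384-well plates held 30 µl, or 55 µl for S. pneumoniae, inoculated at OD595 0.01. Readings at OD595 every 30 min for 14 h at 37 °C were corrected against the first reading.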

S. pneumoniae D39V [2] = experiment: as above
Method in brief: as §1

B. subtilis 168 [3] = experiment: Bliss interaction score (quartile over a dose matrix) (fitness difference); higher = more antagonism (negative = synergy)
Method in brief: (§2)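 The Bliss score is observed minus expected fitness under the product model, reported as quartiles over technical, biological and donor/recipient replicates. Fitness is the OD595 at entry into stationary phase divided by the plate's robust no-drug mean and capped at 1. Single-drug fitness was inferred from combination data.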

S. aureus DSM 20231 = experiment: as above
Method in brief: as §2

S. aureus Newman [4] = experiment: as above
Method in brief: as §2

S. pneumoniae D39V [5] = experiment: as above
Method in brief: as §2

S. aureus Newman [6] = experiment: fitness (endpoint OD595 vs no drug) (fraction); higher = more growth; conditions: one replicate
Method in brief: as §1
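Throughout, for Bliss interaction score (quartile over a dose matrix): first quartile when negative (synergy) and third quartile when positive (antagonism).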

O=C(O[C@@H]1Cc2c(O)cc(O)cc2O[C@@H]1c1cc(O)c(O)c(O)c1)c1cc(O)c(O)c(O)c1 [EGCG] + CCC(C)C1C(=O)NC(=C)C(=O)NC(C(=O)NC(CSCC(C(=O)N1)NC(=O)/C(=C/C)/NC(=O)C(C(C)CC)N)C(=O)NC2C(SCC(NC(=O)CNC(=O)C3CCCN3C2=O)C(=O)NC(CCCCN)C(=O)NC4C(SCC(NC(=O)CNC(=O)C(NC(=O)C(NC(=O)C(NC(=O)CNC4=O)C)CC(C)C)CCSC)C(=O)NC(CC(=O)N)C(=O)NC(CCSC)C(=O)NC(CCCCN)C(=O)NC5C(SCC6C(=O)NC(C(=O)NC(CSC(C(C(=O)N6)NC(=O)C(NC5=O)C)C)C(=O)NC(CO)C(=O)NC(C(C)CC)C(=O)NC(CC7=CN=CN7)C(=O)NC(C(C)C)C(=O)NC(=C)C(=O)NC(CCCCN)C(=O)O)CC8=CN=CN8)C)C)C)CC(C)C [Nisin]
fitness, main component drawn
Conditions | first compound 6.25 µg/mL | first compound 12.5 µg/mL | first compound 25 µg/mL | first compound 50 µg/mL
B. subtilis 168 [1], partner 0.5 µg/mL | 0.853 | 0.761 | – | –
B. subtilis 168 [1], partner 1 µg/mL | 0.813 | 0.619 | – | –
B. subtilis 168 [1], partner 2 µg/mL | 0.432 | 0.308 | 0.21 | –
S. pneumoniae D39V [2], partner 0.4275 µg/mL | – | 0.965 | 0.967 | 0.982
S. pneumoniae D39V [2], partner 0.855 µg/mL | – | 0.989 | ≥ 1 | ≥ 1
S. pneumoniae D39V [2], partner 1.6 µg/mL | – | 0.0156 | 0.0307 | –
S. pneumoniae D39V [2], partner 1.71 µg/mL | – | 0.105 | 0.131 | 0.244
S. pneumoniae D39V [2], partner 3.2 µg/mL | – | 0.0612 | – | –
S. pneumoniae D39V [2], partner 6.4 µg/mL | – | 0.08 | 0.046 | 0.0006

fitness, B. subtilis 168 [1], one replicate, main component drawn
Conditions | partner 1.25 µg/mL | partner 1.6 µg/mL | partner 2.5 µg/mL | partner 3.2 µg/mL | partner 4 µg/mL | partner 5 µg/mL | partner 6.4 µg/mL | partner 8 µg/mL | partner 16 µg/mL
first compound 6.25 µg/mL | ≥ 1 | 0.616 | 0.682 | 0.0933 | 0.0068 | 0.154 | 0.0135 | 0.069 | 0.0181
first compound 12.5 µg/mL | 0.625 | 0.199 | 0.282 | 0.0301 | 0.0461 | 0.0396 | 0.0233 | 0.0351 | 0.0262
first compound 25 µg/mL | 0.247 | 0.0657 | 0.0742 | 0.0436 | 0.0163 | 0.0343 | 0.0151 | 0.044 | 0.0094

main component drawn
Conditions | Bliss interaction score
B. subtilis 168 [3] | -0.0674
S. aureus DSM 20231 | 0.165
S. aureus Newman [4] | 0.134
S. pneumoniae D39V [5] | 0.11

O=C(N[C@H](CO)[C@H](O)c1ccc([N+](=O)[O-])cc1)C(Cl)Cl [Chloramphenicol] + C/C(=C\C(=O)OCCCCCCCCC(=O)O)C[C@@H]1OC[C@H](C[C@@H]2O[C@H]2[C@@H](C)[C@H](C)O)[C@@H](O)[C@H]1O [Pseudomonic acid]
fitness, S. aureus Newman [6]
Conditions | first compound 0.75 µg/mL | first compound 1.5 µg/mL | first compound 3 µg/mL
partner 0.0313 µg/mL | 0.0723 | 0.0644 | 0.0687
partner 0.0625 µg/mL | 0.0337 | 0.0381 | 0.0484
partner 0.125 µg/mL | 0.062 | 0.0655 | 0.0652

Conditions | Bliss interaction score
B. subtilis 168 [3] | 0.0522
S. aureus DSM 20231 | 0.0264
S. aureus Newman [4] | 0.0532
S. pneumoniae D39V [5] | 0.172

CCC[C@@H]1C[C@@H](C(=O)N[C@@H]([C@H]2O[C@H](SC)[C@H](O)[C@@H](O)[C@H]2O)[C@H](C)Cl)N(C)C1 [Clindamycin] + CN(C)C(=O)C(CCN1CCC(O)(c2ccc(Cl)cc2)CC1)(c1ccccc1)c1ccccc1 [Loperamide]
fitness, one replicate
Conditions | first compound 0.0039 µg/mL | first compound 0.0078 µg/mL | first compound 0.015 µg/mL | first compound 0.0156 µg/mL | first compound 0.03 µg/mL | first compound 0.06 µg/mL
B. subtilis 168 [1], partner 25 µg/mL | 0.924 | 0.814 | – | 0.793 | – | –
B. subtilis 168 [1], partner 50 µg/mL | 0.862 | 0.754 | – | 0.595 | – | –
B. subtilis 168 [1], partner 100 µg/mL | 0.53 | 0.385 | – | 0.259 | – | –
S. pneumoniae D39V [2], partner 68.57 µg/mL | – | – | 0.982 | – | 0.896 | 0.725

Conditions | fitness
B. subtilis 168 [1], first compound 0.0625 µg/mL, partner 25 µg/mL | 0.577
B. subtilis 168 [1], first compound 0.0625 µg/mL, partner 50 µg/mL | 0.0289
B. subtilis 168 [1], first compound 0.0625 µg/mL, partner 100 µg/mL | 0.0293
B. subtilis 168 [1], first compound 0.125 µg/mL, partner 25 µg/mL | 0.418
B. subtilis 168 [1], first compound 0.125 µg/mL, partner 50 µg/mL | 0.0399
B. subtilis 168 [1], first compound 0.125 µg/mL, partner 100 µg/mL | 0.0277
B. subtilis 168 [1], first compound 0.25 µg/mL, partner 25 µg/mL | 0.254
B. subtilis 168 [1], first compound 0.25 µg/mL, partner 50 µg/mL | 0.0473
B. subtilis 168 [1], first compound 0.25 µg/mL, partner 100 µg/mL | 0.0404
S. pneumoniae D39V [2], first compound 0.0125 µg/mL, partner 20 µg/mL | 0.82
S. pneumoniae D39V [2], first compound 0.0125 µg/mL, partner 40 µg/mL | 0.859
S. pneumoniae D39V [2], first compound 0.0125 µg/mL, partner 80 µg/mL | 0.858
S. pneumoniae D39V [2], first compound 0.015 µg/mL, partner 17.14 µg/mL | 0.938
S. pneumoniae D39V [2], first compound 0.015 µg/mL, partner 34.28 µg/mL | 0.946
S. pneumoniae D39V [2], first compound 0.025 µg/mL, partner 20 µg/mL | 0.614
S. pneumoniae D39V [2], first compound 0.025 µg/mL, partner 40 µg/mL | 0.62
S. pneumoniae D39V [2], first compound 0.025 µg/mL, partner 80 µg/mL | 0.597
S. pneumoniae D39V [2], first compound 0.03 µg/mL, partner 17.14 µg/mL | 0.778
S. pneumoniae D39V [2], first compound 0.03 µg/mL, partner 34.28 µg/mL | 0.769
S. pneumoniae D39V [2], first compound 0.05 µg/mL, partner 20 µg/mL | 0.316
S. pneumoniae D39V [2], first compound 0.05 µg/mL, partner 40 µg/mL | 0.329
S. pneumoniae D39V [2], first compound 0.05 µg/mL, partner 80 µg/mL | 0.285
S. pneumoniae D39V [2], first compound 0.06 µg/mL, partner 17.14 µg/mL | 0.688
S. pneumoniae D39V [2], first compound 0.06 µg/mL, partner 34.28 µg/mL | 0.639

Conditions | Bliss interaction score
B. subtilis 168 [3] | 0.149
S. aureus DSM 20231 | 0.0957
S. aureus Newman [4] | -0.0895
S. pneumoniae D39V [5] | 0.2
